What follows are molecules tested against T1, FGFR1-GST (Homo sapiens, UniProt P11362) (assay: FGFR-1 TR-FRET biochemical assay). Conditions: bounds given in nM.
T1 construct: GST; made in house
Procedure: FGFR-1 TR-FRET Biochemical Assay
The FGFR-1 Assay was performed on half well 96-well opaque plates (Costar 3915) in a LANCE format. LANCE is a homogenous time resolved fluormetry based application available through Perkin Elmer. For this assay, 50 uL reactions were set up using: 0.6 uM ATP (Sigma), 25 nM poly GT-biotin (CIS BIO International), 2 nM Eu-labelled phospho-Tyr Ab (PY20 PerkinElmer), 10 nM Streptavidin-APC (Perkin Elmer), 5 nM FGFR1-GST (generated by DRT, Bayer Healthcare), 1% DMSO, 50 mM HEPES pH 7.5, 10 mM MgCl2, 0.1 mM EDTA, 0.015% Brij, 0.1 mg/ml BSA, 0.1% B-mercaptoethanol. All reactions were initiated with the addition of enzyme and were left to incubate for one hour at room temperature. Time-resolved fluorescence was then read on a Perkin Elmer VictorV Multilabel counter. The reading protocol uses an excitation wavelength at 340 nm and emission reads at both 615 and 665 nm. Signal was calculated as a ratio: (Fluorescence at 665 nm/Fluorescence at […])*10000 for each well. The background control used for this assay is the signal produced with all assay components excluding ATP. For IC50 generation, compounds were added prior to the enzyme initiation. A 50-fold stock plate was made with compounds serially diluted 1:5 in a 50% DMSO/50% dH2O solution. A 1 μL addition of the stock to the assay wells gave final compound concentrations ranging from 10 μM −0.128 nM in 1% DMSO. The data were expressed as percent inhibition: % inhibition=100−((Signal with inhibitor-background)/(Signal without inhibitor−background))*100.

T1 sequence (P11362 22-822): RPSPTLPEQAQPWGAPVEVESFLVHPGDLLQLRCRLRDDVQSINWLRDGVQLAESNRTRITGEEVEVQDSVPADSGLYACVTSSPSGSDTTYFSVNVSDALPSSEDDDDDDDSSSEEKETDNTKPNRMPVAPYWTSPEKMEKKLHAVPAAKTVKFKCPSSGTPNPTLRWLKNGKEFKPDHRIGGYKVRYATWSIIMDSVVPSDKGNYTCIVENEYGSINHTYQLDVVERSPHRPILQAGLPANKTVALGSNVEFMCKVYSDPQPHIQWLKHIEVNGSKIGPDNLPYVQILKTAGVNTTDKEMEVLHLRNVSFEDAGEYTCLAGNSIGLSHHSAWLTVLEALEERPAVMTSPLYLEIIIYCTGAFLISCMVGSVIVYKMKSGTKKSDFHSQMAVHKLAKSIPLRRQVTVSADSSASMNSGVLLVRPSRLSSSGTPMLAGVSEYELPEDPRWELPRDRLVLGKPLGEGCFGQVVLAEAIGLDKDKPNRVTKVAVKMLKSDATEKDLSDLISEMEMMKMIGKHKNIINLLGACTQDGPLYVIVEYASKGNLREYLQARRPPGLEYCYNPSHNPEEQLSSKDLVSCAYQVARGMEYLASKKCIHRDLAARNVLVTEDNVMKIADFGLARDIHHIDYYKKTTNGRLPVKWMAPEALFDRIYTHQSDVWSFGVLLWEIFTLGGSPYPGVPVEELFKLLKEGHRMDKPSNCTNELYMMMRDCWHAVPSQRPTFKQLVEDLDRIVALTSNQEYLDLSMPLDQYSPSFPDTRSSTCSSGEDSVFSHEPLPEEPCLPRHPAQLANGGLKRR

First: CN1CCN(Cc2c(-c3cnco3)c(-c3ccc(NC(=O)Nc4cc(C(F)(F)F)ccc4F)cc3)c3c(N)ncnn23)CC1 [Example 31, N-4-[4-amino-7-[(4-methylpiperazin-1-yl)methyl]-6-(1,3-oxazol-5-yl)pyrrolo[2,1-f][1,2,4]triazin-5-yl]phenyl-N′-[2-fluoro-5-(trifluoromethyl)phenyl]urea]
Second: CNCc1c(-c2ccc(NC(=O)Nc3cc(C(F)(F)F)ccc3F)cc2)c2c(N)ncnn2c1CN1CCOCC1 [Example 109, N-4-[4-amino-6-[(methylamino)methyl]-7-(morpholin-4-ylmethyl)pyrrolo[2,1-f][1,2,4]triazin-5-yl]phenyl-N′-[2-fluoro-5-(trifluoromethyl)phenyl]urea]
The IC50 of the first is lower: < 10 nM for the first, 10 to 100 nM for the second.

Cc1c(-c2cc(F)c(NC(=O)Nc3cc(C(F)(F)F)ccc3F)cc2F)c2c(N)ncnn2c1CN1CCOCC1 [Example 123, N-{4-[4-amino-6-methyl-7-(morpholin-4-ylmethyl)pyrrolo[2,1-f][1,2,4]triazin-5-yl]-2,5-difluorophenyl}-N′-[2-fluoro-5-(trifluoromethyl)-phenyl]urea] and COCc1c(-c2ccc(NC(=O)Nc3cc(C(F)(F)F)ccc3Cl)c(F)c2)c2c(N)ncnn2c1CN1CCOCC1 [Example 142, N-{4-[4-amino-6-(methoxymethyl)-7-(morpholin-4-ylmethyl)-pyrrolo[2,1-f][1,2,4]triazin-5-yl]-2-fluorophenyl}-N′-[2-chloro-5-(trifluoromethyl)phenyl]urea] fall in the same range of IC50: 10 to 100 nM for the first, 10 to 100 nM for the second.

First: Nc1ncnn2c(CN3CCOCC3)c(CO)c(-c3ccc(NC(=O)Nc4cc(C(F)(F)F)ccn4)c(F)c3)c12 [Example 114, N-{4-[4-amino-6-(hydroxymethyl)-7-(morpholin-4-ylmethyl)pyrrolo[2,1-f][1,2,4]triazin-5-yl]-2-fluorophenyl}-N′-[4-(trifluoromethyl)pyridin-2-yl]urea]
Second: Nc1ncnn2c(CN3CCOCC3)c(Cl)c(-c3ccc(NC(=O)Nc4cc(C(F)(F)F)ccn4)c(F)c3)c12 [Example 158, N-{4-[4-amino-6-chloro-7-(morpholin-4-ylmethyl)pyrrolo[2,1-f][1,2,4]triazin-5-yl]-2-fluorophenyl}-N′-[4-(trifluoromethyl)pyridin-2-yl]urea]
The IC50 of the first is higher: 10 to 100 nM for the first, < 10 nM for the second.

First: Cc1ccc(F)c(NC(=O)Nc2ccc(-c3c(Cl)c(CN4CCOCC4)n4ncnc(N)c34)cc2F)c1 [Example 161, N-{4-[4-amino-6-chloro-7-(morpholin-4-ylmethyl)pyrrolo[2,1-f][1,2,4]triazin-5-yl]-2-fluorophenyl}-N′-(2-fluoro-5-methylphenyl)urea]
Second: COCc1c(-c2ccc(NC(=O)Nc3cc(C)ccc3F)c(F)c2)c2c(N)ncnn2c1CN1CCCOCC1 [Example 140, N-{4-[4-amino-6-(methoxymethyl)-7-(1,4-oxazepan-4-ylmethyl)-pyrrolo[2,1-f][1,2,4]triazin-5-yl]-2-fluorophenyl}-N′-(2-fluoro-5-methylphenyl)urea]
The IC50 of the first is lower: < 10 nM for the first, 10 to 100 nM for the second.

Compared with COCc1c(-c2ccc(NC(=O)Nc3cc(C(F)(F)F)ccc3F)c(F)c2)c2c(N)ncnn2c1CN1CCNC(=O)C1 [Example 44, N-(4-{4-amino-6-(methoxymethyl)-7-[(3-oxopiperazin-1-yl)methyl]pyrrolo[2,1-f][1,2,4]triazin-5-yl}-2-fluorophenyl)-N′-[2-fluoro-5-(trifluoromethyl)phenyl]urea], COCc1c(-c2ccc(NC(=O)Nc3cc(C(F)(F)F)ccc3F)c(F)c2)c2c(N)ncnn2c1C1CCNCC1 [Example 149, 1-{4-[4-amino-6-(methoxymethyl)-7-piperidin-4-ylpyrrolo[2,1-f][1,2,4]triazin-5-yl]-2-fluorophenyl}-3-[2-fluoro-5-(trifluoro-methyl)phenyl]urea] is higher in IC50: < 10 nM for the first, 10 to 100 nM for the second. The first is the more potent here.

First: N#CCc1c(-c2ccc(NC(=O)Nc3cc(C(F)(F)F)ccc3F)c(F)c2)c2c(N)ncnn2c1CN1CCS(=O)(=O)CC1 [Example 79, N-(4-{4-amino-6-(cyanomethyl)-7-[(1,1-dioxidothiomorpholin-4-yl)methyl]pyrrolo[2,1-f][1,2,4]triazin-5-yl}-2-fluorophenyl)-N′-[2-fluoro-5-(trifluoromethyl)phenyl]urea]
Second: Nc1ncnn2c(CN3CCOCC3)c(C(O)C3CC3)c(-c3ccc(NC(=O)Nc4cc(C(F)(F)F)ccc4F)cc3)c12 (centres unmarked) [Example 106, N-4-[4-amino-6-[cyclopropyl(hydroxy)methyl]-7-(morpholin-4-ylmethyl)pyrrolo[2,1-f][1,2,4]triazin-5-yl]phenyl-N′-[2-fluoro-5-(trifluoromethyl)phenyl]urea]
The IC50 of the first is lower: < 10 nM for the first, 10 to 100 nM for the second. The first is the more potent here.

N#Cc1c(C(=O)NCC(F)(F)F)c(-c2ccc(NC(=O)Nc3cc(C(F)(F)F)ccc3F)cc2)c2c(N)ncnn12 [Example 5, 4-amino-7-cyano-5-4-[([2-fluoro-5-(trifluoromethyl)phenyl]aminocarbonyl)amino]phenyl-N-(2,2,2-trifluoroethyl)-pyrrolo[2,1-f][1,2,4]triazine-6-carboxamide] and COCc1c(-c2ccc(NC(=O)Nc3cc(C(F)(F)F)ccc3F)cc2)c2c(N)ncnn2c1CNC1CC1 [Example 16, N-{4-[4-amino-7-[(cyclopropylamino)methyl]-6-(methoxymethyl)pyrrolo[2,1-f][1,2,4]triazin-5-yl]phenyl}-N′-[2-fluoro-5-(trifluoromethyl)phenyl]urea] fall in the same range of IC50: 10 to 100 nM for the first, 10 to 100 nM for the second.

COCc1c(-c2ccc(NC(=O)Nc3cccc(C(F)(F)F)n3)cc2)c2c(N)ncnn2c1CN1CCOCC1 [Example 50] and CC(C)(O)c1c(-c2ccc(NC(=O)Nc3cc(C(F)(F)F)ccn3)cc2)c2c(N)ncnn2c1CN1CCOCC1 [Example 86] cannot be ordered by IC50: > 100 nM for the first, > 100 nM for the second.

First: CCOC(=O)c1c(-c2ccc(NC(=O)Nc3cc(C(F)(F)F)ccn3)cc2)c2c(N)ncnn2c1-c1ccc(OC)cc1 [Example 4, ethyl 4-amino-7-(4-methoxyphenyl)-5-{4-[({[4-(trifluoromethyl)pyridin-2-yl]amino}carbonyl)amino]-phenyl}pyrrolo[2,1-f][1,2,4]triazine-6-carboxylate]
Second: CC(C)(C)C(=O)c1c(-c2ccc(NC(=O)Nc3cc(C(F)(F)F)ccn3)cc2)c2c(N)ncnn2c1CN1CCOCC1 [Example 92, N-{4-[4-amino-6-(2,2-dimethylpropanoyl)-7-(morpholin-4-ylmethyl)pyrrolo[2,1-f][1,2,4]triazin-5-yl]phenyl}-N′-[4-(trifluoromethyl)-pyridin-2-yl]urea]
The IC50 of the first is lower: 10 to 100 nM for the first, > 100 nM for the second. The first is the more potent here.

Compared with Nc1ncnn2c(CN3CCOCC3)c(Cl)c(-c3ccc(NC(=O)Nc4cccc(C(F)(F)F)c4)c(Cl)c3)c12 [Example 160, N-{4-[4-amino-6-chloro-7-(morpholin-4-ylmethyl)pyrrolo[2,1-f][1,2,4]triazin-5-yl]-2-chlorophenyl}-N′-[3-(trifluoromethyl)phenyl]urea], Nc1ncnn2c(CN3CCOCC3)c(-c3cnco3)c(-c3ccc(NC(=O)Nc4cccc(OC(F)(F)F)c4)cc3)c12 [Example 28, N-4-[4-amino-7-(morpholin-4-ylmethyl)-6-(1,3-oxazol-5-yl)pyrrolo[2,1-f][1,2,4]triazin-5-yl]phenyl-N′-[3-(trifluoromethoxy)-phenyl]urea] is lower in IC50: 10 to 100 nM for the first, < 10 nM for the second. The second is the more potent here.

Same assay, conditions: upper bound in μM

COCc1c(-c2ccc(NC(=O)Nc3cccc(C(F)(F)F)n3)cc2)c2c(N)ncnn2c1CN1CCOCC1 [Example 50] and CC(C)(O)c1c(-c2ccc(NC(=O)Nc3cc(C(F)(F)F)ccn3)cc2)c2c(N)ncnn2c1CN1CCOCC1 [Example 86] cannot be ordered by IC50: < 1000 nM for the first, < 1000 nM for the second.

For CC(C)(C)C(=O)c1c(-c2ccc(NC(=O)Nc3cc(C(F)(F)F)ccn3)cc2)c2c(N)ncnn2c1CN1CCOCC1 [Example 92, N-{4-[4-amino-6-(2,2-dimethylpropanoyl)-7-(morpholin-4-ylmethyl)pyrrolo[2,1-f][1,2,4]triazin-5-yl]phenyl}-N′-[4-(trifluoromethyl)-pyridin-2-yl]urea], the IC50 was < 1000 nM.

From patent publication US8829185B2 (Bayer HealthCare LLC, priority 2005, dated 2014)
